{"source": "paper PMC13110849", "about": "(ACS chemical neuroscience, 2023)", "target": "RhoA•GMPPNP binding to ROCK1 (Homo sapiens, UniProt P61586)", "sequence (P61586 whole entry)": "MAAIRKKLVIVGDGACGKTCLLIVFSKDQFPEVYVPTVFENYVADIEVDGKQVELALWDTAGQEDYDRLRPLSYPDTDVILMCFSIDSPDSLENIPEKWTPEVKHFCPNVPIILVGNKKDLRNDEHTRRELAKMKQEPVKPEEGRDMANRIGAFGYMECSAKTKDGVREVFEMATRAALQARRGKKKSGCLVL", "experiment": "AlphaScreen assay of RhoA•GMPPNP binding to ROCK1", "details": "varying concentration, 24 h, 4 °C", "data": [{"smiles": "Nc1nc2c(ncn2[C@@H]2O[C@H](COP(=O)(O)OP(=O)(O)O)[C@@H](O)[C@H]2O)c(=O)[nH]1", "note": "[GDP]", "values": [{"measurement": "Inhibition of RhoA•GMPPNP binding to ROCK1", "result": "successfully inhibited"}]}]}
